Assay results from US11052154B2, “Ras protein degradation inducing molecule and pharmaceutical composition” (Tokyo University of Science Foundation, priority 2016, dated 2021).

Tests used:
Type in all cases: cell-based
[1] = molecular target: T1, G12D mutant K-Ras protein (Homo sapiens, UniProt P01116, G12D); assay: Degradation (knockdown) of G12D mutant K-Ras protein forcibly expressed in HeLa cells, FACS analysis
T1 construct: expressed in transfected cells; host or cells: HeLa

[2] = molecular target: T1, G12D mutant K-Ras protein; assay: Degradation (knockdown) of G12D mutant K-Ras protein forcibly expressed in HeLa cells, Western blot analysis; conditions: FIG. 4
Experimental: In Example 5, degradation (knockdown) of the G12D mutant K-Ras protein forcibly expressed in HeLa cells through TUS-007 was evaluated by Western blot analysis.
A plasmid expressing the G12D mutant K-Ras protein (K-Ras-G12D) was prepared, as in Example 4.
As in Example 4, the plasmid was introduced into HeLa cells to transiently overexpress a G12D mutant K-Ras protein or a DsRed protein for comparison in the cells. HeLa cells into which the plasmid had been introduced were seeded in a 24-well plate at a cell density of 4×10^4 cells/well, and then cultured under conditions of 37° C. and 5 vol % CO2 for 40 hours.
TUS-007 was added to HeLa cells as in Example 4. Furthermore, in addition to an experiment group in which a DMSO solution containing TUS-007 had been added, an experiment group in which a DMSO solution containing Ras-SOS-NH2 had been added was prepared. DMSO was used as a control.
As in Example 3, degradation of a G12D mutant K-Ras protein through TUS-007 was evaluated by Western blot analysis.

[3] = molecular target: T2, SOS1 protein (Homo sapiens, UniProt Q07889); assay: Amount of SOS1 protein in HeLa cells, Western blot analysis; conditions: 48 hours after addition, vs control (DMSO), FIG. 5
T2 construct: endogenous in cells; host or cells: HeLa
T2 sequence (Q07889 1-1333): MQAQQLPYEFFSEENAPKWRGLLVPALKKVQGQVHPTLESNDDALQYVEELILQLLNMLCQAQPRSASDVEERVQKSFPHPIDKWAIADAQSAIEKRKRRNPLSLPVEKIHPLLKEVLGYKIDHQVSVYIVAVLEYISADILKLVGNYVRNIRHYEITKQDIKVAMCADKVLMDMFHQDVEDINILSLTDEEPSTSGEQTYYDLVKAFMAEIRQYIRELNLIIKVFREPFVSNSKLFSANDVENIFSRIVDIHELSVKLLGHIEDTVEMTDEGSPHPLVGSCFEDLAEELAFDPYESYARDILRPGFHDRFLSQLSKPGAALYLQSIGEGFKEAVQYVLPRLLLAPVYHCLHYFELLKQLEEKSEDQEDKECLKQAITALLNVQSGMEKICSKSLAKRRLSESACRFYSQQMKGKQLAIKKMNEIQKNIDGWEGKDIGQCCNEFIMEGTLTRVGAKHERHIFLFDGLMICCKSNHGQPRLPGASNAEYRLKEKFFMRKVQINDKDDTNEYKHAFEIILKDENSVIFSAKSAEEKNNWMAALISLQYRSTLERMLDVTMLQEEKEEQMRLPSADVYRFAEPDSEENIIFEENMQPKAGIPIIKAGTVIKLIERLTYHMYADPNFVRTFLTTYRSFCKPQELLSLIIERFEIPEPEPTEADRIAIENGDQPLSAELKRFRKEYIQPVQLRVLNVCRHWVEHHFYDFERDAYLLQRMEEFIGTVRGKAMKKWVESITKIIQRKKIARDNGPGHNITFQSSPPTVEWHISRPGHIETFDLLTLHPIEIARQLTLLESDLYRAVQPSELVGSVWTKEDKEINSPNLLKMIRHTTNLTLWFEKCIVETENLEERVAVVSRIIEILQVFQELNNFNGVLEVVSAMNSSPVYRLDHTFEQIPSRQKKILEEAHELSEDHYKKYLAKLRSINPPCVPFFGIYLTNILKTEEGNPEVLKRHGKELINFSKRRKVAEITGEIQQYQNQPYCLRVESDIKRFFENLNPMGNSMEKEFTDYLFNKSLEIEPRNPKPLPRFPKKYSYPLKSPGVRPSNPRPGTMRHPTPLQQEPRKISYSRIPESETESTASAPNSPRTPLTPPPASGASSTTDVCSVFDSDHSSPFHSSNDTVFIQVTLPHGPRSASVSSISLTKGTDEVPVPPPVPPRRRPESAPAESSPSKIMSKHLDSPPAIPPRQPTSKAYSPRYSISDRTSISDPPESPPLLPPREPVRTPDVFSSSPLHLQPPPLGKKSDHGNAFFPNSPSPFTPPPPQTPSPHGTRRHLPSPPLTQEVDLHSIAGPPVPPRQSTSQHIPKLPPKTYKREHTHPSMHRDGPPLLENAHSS

SMILES: CCC(C)[C@H](NC(=O)CCCCCCNC(=O)[C@H](CC(C)C)NC(=O)CNC(=O)c1cc(Cl)ccc1Cl)C(=O)Nc1ccc2[nH]c(Cc3c[nH]c4ccccc34)nc2c1 (stereo in doubt) [TUS-007]
- degradation of the G12D mutant K-Ras protein when both TUS-007 and MLN2238 were added ([1]; HeLa cells, MLN2238 co-added, compared with TUS-007 alone, FIG. 3): G12D mutant and G12V mutant K-Ras protein degradation was inhibited
- degradation (knockdown) of the G12D mutant K-Ras protein (shift of GFP/DsRed ratio graph) ([1]; HeLa cells, vs control (DMSO), FIG. 3): degradation of the G12D mutant and the G12V mutant K-Ras protein was induced
- comparison of degradation induction among wild-type, G12D mutant and G12V mutant K-Ras protein ([1]; from the results of FIGS. 1 and 3): excellent in inducing the degradation of the G12D mutant K-Ras protein
- amount of the G12D mutant K-Ras protein (Western blot) [2]: the amount of the G12D mutant K-Ras protein was reduced in a concentration-dependent manner
- amount of the SOS1 protein (Western blot) [3]: the amount of the SOS1 protein was not reduced
